From patent publication US10413565B2, “Nanostructures for modulating intercellular communication and uses thereof” (Northwestern University, priority 2014, dated 2019)

Assays:
Type in all cases: cell-based
A375 melanoma cells [1] = experiment: 3H-cholesterol efflux assay; details: BLT-1 1 μM; acceptors 500 nM
Experimental: A375 cells were cultured in DMEM containing 1 μCi/mL [1,2,-^3H] cholesterol (Perkin-Elmer) overnight to label the cellular cholesterol pool. Cells were then washed in PBS and resuspended in serum free media. Human HDL or HDL NPs were added to the culture media and allowed to incubate for 6 hours. Cell culture media was then collected and subjected to liquid scintillation counting. The percentage of cholesterol efflux was determined by using the formula counts media/(counts cells+counts media)×100. Efflux of cholesterol in the absence of an acceptor was also measured and interpreted along with other results.

A375 melanoma cells [2] = experiment: Exosome uptake assay (DiI-labeled exosomes, flow cytometry / fluorescence microscopy); details: 24 hrs treatment
Experimental: A375 melanoma exosomes were isolated from conditioned media using differential ultracentrifugation [Thery et al. 2006]. In brief, cells were cultured in exosome deficient media for 72 hours at which point the cell culture media was collected and centrifuged at 2000×g to remove dead cells and debris. Next, larger vesicles and cell debris were removed by centrifugation at 10,000×g for 30 minutes. Exosomes were then pelleted by centrifugation at 100,000×g for 70 minutes, and subsequently washed in PBS by another 100,000×g centrifugation step for 70 minutes. Exosomes were re-suspended in PBS. Protein concentration of exosomes was analyzed by BCA Protein assay (Thermo Scientific). […] In order to test if HDL NPs quenched exosome fluorescence, we incubated HDL NPs with fluorescently labeled exosomes for 4 hours and then measured the fluorescent signal.
The cellular uptake of exosomes was measured by fluorescence microscopy and flow cytometry after cell treatments. […] For fluorescence microscopy experiments, cells were plated on coverslips coated with 0.1% gelatin. Exosome uptake was measured over the course of 24 hours using a BD LSR Fortessa flow cytometer (Robert H. Lurie Comprehensive Cancer Center Flow Cytometry Core) or a Nikon A1R fluorescence microscope (Northwestern University Nikon Imaging Facility).

GFP-SR-B1 = molecular target: T1, GFP-SR-B1 (Homo sapiens, UniProt Q8WTV0); experiment: GFP-SR-B1 clustering and dynamics (confocal imaging, computer vision analysis); details: A375 cells expressing GFP-SR-B1, 24 hrs treatment
T1 construct: expressed in transfected cells
T1 sequence (Q8WTV0 1-552): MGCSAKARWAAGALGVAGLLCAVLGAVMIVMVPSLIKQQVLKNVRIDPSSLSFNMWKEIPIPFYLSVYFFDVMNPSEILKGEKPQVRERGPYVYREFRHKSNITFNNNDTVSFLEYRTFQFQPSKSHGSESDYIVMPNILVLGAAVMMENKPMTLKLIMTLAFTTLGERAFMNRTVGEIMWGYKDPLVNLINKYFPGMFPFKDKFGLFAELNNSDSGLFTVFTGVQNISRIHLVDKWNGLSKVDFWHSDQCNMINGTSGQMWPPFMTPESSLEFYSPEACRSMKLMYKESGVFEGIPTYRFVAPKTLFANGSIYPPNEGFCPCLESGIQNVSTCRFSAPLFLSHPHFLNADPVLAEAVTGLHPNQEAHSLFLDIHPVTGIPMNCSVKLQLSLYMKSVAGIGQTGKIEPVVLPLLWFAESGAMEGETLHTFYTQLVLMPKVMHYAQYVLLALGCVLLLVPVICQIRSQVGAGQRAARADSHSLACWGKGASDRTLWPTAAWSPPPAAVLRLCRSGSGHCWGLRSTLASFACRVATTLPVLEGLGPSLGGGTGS
Excerpt: A semi-automated approach using ImageJ software was employed to identify the areas of GFP-SR-B1 in the images. After background subtraction, an unsharp mask filter with a large radius was applied to locally enhance contrast. Manual thresholding of filtered images was then used to generate a segment mask, which could be overlaid on the original, background subtracted image to facilitate measurement of domain parameters such as area and mean intensity. […]
To calculate the linearity of the motion, we introduced a parameter rho (FIG. 3C), which is calculated as the ratio between the head-to-tail (first point to the end point) trajectory distance divided by the total distance traveled by fluorescent domains. […]
Fluorescence microscopy was performed using an A1R confocal microscope with assistance from the Northwestern University Center for Advanced Microscopy. Images were analyzed using NIS Elements (Nikon) and ImageJ (NIH) software. Live cell confocal fluorescence microscopy to assess lipid raft dynamics was performed with a Nikon Eclipse T1 microscope equipped with an Andor iXon Ultra 897 camera and analyzed using Metamorph software (Molecular Devices).

Which “3H-cholesterol efflux to hHDL and HDL NP with BLT-1 treatment” value (A375 melanoma cells [1]) does the source give for CCCCCCC1CCCC1=NNC(N)=S (stereo not drawn) [BLT-1, Blocks Lipid Transport 1] here?
The value was “reduced efflux to both hHDLs and HDL NPs”.

What about the “inhibition of cellular exosome uptake” value (A375 melanoma cells [2]) of the same compound?
Its value is “did not result in the inhibition of exosome uptake”.

And the “clustering of GFP-SR-B1” value (GFP-SR-B1)?
Its value is “did not result in the inhibition of exosome uptake or clustering of the receptor”.
